# Data as given in patent US10239844B2, “Disubstituted triazole analogs” (BioVentures, LLC, priority 2014, dated 2019).
# Assays:
# Format in all cases: cell-based, human
# SW-620 = assay: NCI 60 panel five-dose growth inhibition, Colon Cancer; details: SW-620, Colon Cancer; for GI50: Homo sapiens
# UACC-62 = assay: NCI 60 panel five-dose growth inhibition, Melanoma; details: for TGI: UACC-62, Melanoma
# K-562 = assay: NCI 60 panel five-dose growth inhibition, Leukemia; details: K-562, Leukemia; for GI50: Homo sapiens, K562
# PC-3 = assay: NCI 60 panel five-dose growth inhibition, Prostate Cancer; details: PC-3, Prostate Cancer; for GI50: Homo sapiens
# COLO 205 = assay: NCI 60 panel five-dose growth inhibition, Colon Cancer; details: COLO 205, Colon Cancer; for GI50: Homo sapiens
# SF-268 = assay: NCI 60 panel five-dose growth inhibition, CNS Cancer; details: SF-268, CNS Cancer; for GI50: Homo sapiens
# ACHN = assay: NCI 60 panel five-dose growth inhibition, Renal Cancer; details: for GI50: Homo sapiens
# SK-OV-3 = assay: NCI 60 panel five-dose growth inhibition, Ovarian Cancer; details: SK-OV-3, Ovarian Cancer; for GI50: Homo sapiens
# OVCA R-3 = assay: as above; details: OVCA R-3, Ovarian Cancer; for GI50: Homo sapiens, OVCAR-3
# NCI-H23 = assay: NCI 60 panel five-dose growth inhibition, Non-Small Cell Lung Cancer; details: for GI50: Homo sapiens
# U251 = assay: NCI 60 panel five-dose growth inhibition, CNS Cancer; details: for GI50: Homo sapiens, U-251
# SK-MEL-2 = assay: NCI 60 panel five-dose growth inhibition, Melanoma; details: SK-MEL-2, Melanoma; for GI50: Homo sapiens
# 5K-MEL-5 = assay: NCI 60 panel five-dose growth inhibition, Melanoma; details: 5K-MEL-5, Melanoma; for GI50: Homo sapiens
# MDA-MB-468 = assay: NCI 60 panel five-dose growth inhibition, Breast Cancer; details: MDA-MB-468, Breast Cancer; for GI50: Homo sapiens
# HOP-62 = assay: NCI 60 panel five-dose growth inhibition, Non-Small Cell Lung Cancer; details: HOP-62, Non-Small Cell Lung Cancer; for GI50: Homo sapiens
# SK-MEL-28 = assay: NCI 60 panel five-dose growth inhibition, Melanoma; details: SK-MEL-28, Melanoma; for GI50: Homo sapiens
# DU-145 = assay: NCI 60 panel five-dose growth inhibition, Prostate Cancer; details: DU-145, Prostate Cancer; for GI50: Homo sapiens
# SF-295 = assay: NCI 60 panel five-dose growth inhibition, CNS Cancer; details: SF-295, CNS Cancer; for GI50: Homo sapiens
# HOP-92 = assay: NCI 60 panel five-dose growth inhibition, Non-Small Cell Lung Cancer; details: HOP-92, Non-Small Cell Lung Cancer; for GI50: Homo sapiens
# MCF7 = assay: NCI 60 panel five-dose growth inhibition, Breast Cancer; details: for GI50: Homo sapiens
# NCI-H460 = assay: NCI 60 panel five-dose growth inhibition, Non-Small Cell Lung Cancer; details: for GI50: Homo sapiens
# MDA-MB-231/ATCC = assay: NCI 60 panel five-dose growth inhibition, Breast Cancer; details: for GI50: Homo sapiens
# SNB-75 = assay: NCI 60 panel five-dose growth inhibition, CNS Cancer; details: SNB-75, CNS Cancer; for GI50: Homo sapiens
# HCT-116 = assay: NCI 60 panel five-dose growth inhibition, Colon Cancer; details: HCT-116, Colon Cancer; for GI50: Homo sapiens
# 1-ICT-15 = assay: as above; details: 1-ICT-15, Colon Cancer; for GI50: Homo sapiens
# U0-31 = assay: NCI 60 panel five-dose growth inhibition, Renal Cancer; details: U0-31, Renal Cancer; for GI50: Homo sapiens
# M14 = assay: NCI 60 panel five-dose growth inhibition, Melanoma
# SNB-19 = assay: NCI 60 panel five-dose growth inhibition, CNS Cancer; details: SNB-19, CNS Cancer; for GI50: Homo sapiens
# HS 5781 = assay: NCI 60 panel five-dose growth inhibition, Breast Cancer; details: HS 5781, Breast Cancer; for GI50: Homo sapiens
# IGROV1 = assay: NCI 60 panel five-dose growth inhibition, Ovarian Cancer; details: for GI50: Homo sapiens, IGROV-1
# SR = assay: NCI 60 panel five-dose growth inhibition, Leukemia; details: for GI50: Homo sapiens
# A549/ATCC = assay: NCI 60 panel five-dose growth inhibition, Non-Small Cell Lung Cancer; details: for GI50: Homo sapiens
# NCI/ADR-RES = assay: NCI 60 panel five-dose growth inhibition, Ovarian Cancer; details: for GI50: Homo sapiens
# OVCAR-4 = assay: as above; details: OVCAR-4, Ovarian Cancer; for GI50: Homo sapiens
# SF-539 = assay: NCI 60 panel five-dose growth inhibition, CNS Cancer; details: SF-539, CNS Cancer; for GI50: Homo sapiens
# RPMI-8226 = assay: NCI 60 panel five-dose growth inhibition, Leukemia; details: RPMI-8226, Leukemia; for GI50: Homo sapiens
smiles,measurement,setting,value
"COc1ccc(-c2n[nH]nc2-c2cc(OC)c(OC)c(OC)c2)cc1 [Example 6, 4-(4-methoxyphenyl)-5-(3,4,5-trimethoxyphenyl)-2H-1,2,3-triazole]",GI50,SW-620,< 10 nM
same,TGI,SW-620,>100000 nM
same,TGI,UACC-62,21200 nM
same,GI50,K-562,< 10 nM
same,TGI,K-562,>100000 nM
same,GI50,PC-3,18.4 nM
same,TGI,PC-3,39400 nM
same,TGI,COLO 205,70 nM
same,GI50,COLO 205,26.7 nM
same,GI50,SF-268,68.5 nM
same,TGI,SF-268,>100000 nM
same,TGI,ACHN,>100000 nM
same,GI50,ACHN,< 10 nM
same,GI50,SK-OV-3,< 10 nM
same,TGI,SK-OV-3,12700 nM
same,GI50,OVCA R-3,< 10 nM
same,TGI,OVCA R-3,<10 nM
same,TGI,NCI-H23,41700 nM
same,GI50,NCI-H23,48 nM
same,TGI,U251,22700 nM
same,GI50,U251,20.1 nM
same,GI50,SK-MEL-2,< 10 nM
same,TGI,SK-MEL-2,18100 nM
same,TGI,5K-MEL-5,160 nM
same,GI50,5K-MEL-5,< 10 nM
same,GI50,MDA-MB-468,14.7 nM
same,TGI,MDA-MB-468,30500 nM
same,TGI,HOP-62,19300 nM
same,GI50,HOP-62,18.2 nM
same,GI50,SK-MEL-28,> 100 nM
same,TGI,SK-MEL-28,34800 nM
same,TGI,DU-145,>100000 nM
same,GI50,DU-145,25 nM
same,GI50,SF-295,< 10 nM
same,TGI,SF-295,42800 nM
same,TGI,HOP-92,540 nM
same,GI50,HOP-92,< 10 nM
same,TGI,MCF7,37900 nM
same,GI50,MCF7,< 10 nM
same,TGI,NCI-H460,20000 nM
same,GI50,NCI-H460,24.6 nM
same,TGI,MDA-MB-231/ATCC,>100000 nM
same,GI50,MDA-MB-231/ATCC,44.4 nM
same,GI50,SNB-75,< 10 nM
same,TGI,SNB-75,21900 nM
same,TGI,HCT-116,810 nM
same,GI50,HCT-116,< 10 nM
same,TGI,1-ICT-15,>100000 nM
same,GI50,1-ICT-15,< 10 nM
same,GI50,U0-31,< 10 nM
same,TGI,U0-31,24600 nM
same,GI50,M14; Homo sapiens,< 10 nM
same,GI50,SNB-19,29.4 nM
same,TGI,SNB-19,>100000 nM
same,TGI,HS 5781,64200 nM
same,GI50,HS 5781,668 nM
same,TGI,IGROV1,30300 nM
same,GI50,IGROV1,33.2 nM
same,TGI,SR,24000 nM
same,GI50,SR,< 10 nM
same,TGI,A549/ATCC,22600 nM
same,GI50,A549/ATCC,22.9 nM
same,TGI,NCI/ADR-RES,69700 nM
same,GI50,NCI/ADR-RES,< 10 nM
same,GI50,OVCAR-4,33.6 nM
same,TGI,OVCAR-4,57200 nM
same,GI50,SF-539,< 10 nM
same,GI50,RPMI-8226,32.5 nM
same,TGI,RPMI-8226,11000 nM
"COc1cc(-c2n[nH]nc2-c2ccc3c(c2)OCCO3)cc(OC)c1OC [Example 7, 4-(2,3-dihydrobenzo[b][1,4]dioxin-6-yl)-5-(3,4,5-trimethoxyphenyl)-2H-1,2,3-triazole]",GI50,SW-620,105 nM
same,TGI,SW-620,>100000 nM
same,GI50,"UACC-62; Homo sapiens, UACC-62, UACC-62, Melanoma",> 1000 nM
same,TGI,UACC-62,30800 nM
same,GI50,K-562,49.6 nM
same,TGI,K-562,>100000 nM
same,GI50,PC-3,255 nM
same,TGI,PC-3,43700 nM
same,TGI,COLO 205,1300 nM
same,GI50,COLO 205,311 nM
same,GI50,SF-268,> 1000 nM
same,TGI,SF-268,>100000 nM
same,TGI,ACHN,>100000 nM
same,GI50,ACHN,705 nM
same,GI50,SK-OV-3,486 nM
same,TGI,SK-OV-3,93200 nM
same,GI50,OVCA R-3,432 nM
same,TGI,OVCA R-3,370 nM
same,TGI,NCI-H23,>100000 nM
same,GI50,NCI-H23,767 nM
same,TGI,U251,11200 nM
same,GI50,U251,302 nM
same,GI50,SK-MEL-2,23.6 nM
same,TGI,SK-MEL-2,55700 nM
same,TGI,5K-MEL-5,11900 nM
same,GI50,5K-MEL-5,> 1000 nM
same,GI50,MDA-MB-468,226 nM
same,TGI,MDA-MB-468,25800 nM
same,TGI,HOP-62,>100000 nM
same,GI50,HOP-62,336 nM
same,GI50,SK-MEL-28,244 nM
same,TGI,SK-MEL-28,43500 nM
same,TGI,DU-145,>100000 nM
same,GI50,DU-145,346 nM
same,GI50,SF-295,98.9 nM
same,TGI,SF-295,3610 nM
same,TGI,HOP-92,1590 nM
same,GI50,HOP-92,122 nM
same,TGI,MCF7,>100000 nM
same,GI50,MCF7,76.8 nM
same,TGI,NCI-H460,28700 nM
same,GI50,NCI-H460,335 nM
same,TGI,MDA-MB-231/ATCC,31500 nM
same,GI50,MDA-MB-231/ATCC,529 nM
same,GI50,SNB-75,82.4 nM
same,TGI,HCT-116,15600 nM
same,GI50,HCT-116,181 nM
same,TGI,1-ICT-15,>100000 nM
same,GI50,1-ICT-15,125 nM
same,GI50,U0-31,661 nM
same,TGI,U0-31,72700 nM
same,TGI,M14,12000 nM
same,GI50,SNB-19,501 nM
same,TGI,SNB-19,>100000 nM
same,TGI,HS 5781,>100000 nM
same,GI50,HS 5781,442 nM
same,TGI,IGROV1,>100000 nM
same,GI50,IGROV1,> 1000 nM
same,TGI,SR,11600 nM
same,GI50,SR,43.6 nM
same,TGI,A549/ATCC,50900 nM
same,GI50,A549/ATCC,289 nM
same,TGI,NCI/ADR-RES,24000 nM
same,GI50,NCI/ADR-RES,84.9 nM
same,GI50,OVCAR-4,76.3 nM
same,TGI,OVCAR-4,>100000 nM
same,GI50,SF-539,181 nM
same,TGI,SF-539,540 nM
same,GI50,RPMI-8226,326 nM
same,TGI,RPMI-8226,22100 nM
